In PMC8653689, “Phenanthrotriazine Derivatives Containing Arylidine Hydrazone Moieties as Novel Potential c-Met Inhibitors with Anticancer Effect” (Iranian Journal of Pharmaceutical Research : IJPR, 2021):

What was measured:
[1] = tested on: MDA-MB-231 breast cancer cells; parameters: method as in PMID 25470024; conditions: ref [32], [33]; read-out: Antiproliferative activity against MDA-MB-231 breast cancer cells IC50; cited from earlier work
[2] = tested on: DU145 prostate cancer cells; parameters: method as in PMID 28431881; conditions: ref [30]; read-out: Antiproliferative activity against DU145 prostate cancer cells IC50; cited from earlier work
A498 renal cancer cells = tested on: A498 renal cancer cells; parameters: method as in PMID 30721822, PMID 28431881; conditions: at 10 μM; ref [4], [30]; cited from earlier work
MCF7 breast cancer cells = tested on: MCF7 breast cancer cells; parameters: method as in PMID 28763643, PMID 24393539; conditions: ref [13], [31]; read-out: Cytotoxic effect against MCF7 breast cancer cells IC50; cited from earlier work
[3] = Solubility in aqueous media; format: physicochemical
[4] = tested on: MGC-803 gastric cancer cells; parameters: method as in PMID 28763643, PMID 24393539; conditions: ref [13], [31]; read-out: Antiproliferative activity against MGC-803 gastric cancer cells IC50; cited from earlier work
[5] = tested on: HT-29 (human colorectal adenocarcinoma) cells; assay: MTT reduction assay, antiproliferative effect, HT-29; format: cell-based; conditions: Homo sapiens, HT-29, 72 h, read-out: HT-29 IC50
Source text: (§1) Fetal bovine serum (FBS), phosphate-buffered saline (PBS), RPMI-1640, and trypsin were obtained from Biosera (Ringmer, UK). Penicillin/streptomycin and MTT (3-(4,5-dimethylthiazol-2-yl)-2,5-diphenyltetrazolium bromide) were from Sigma-Aldrich (Saint Louis, MO, USA) and Invitrogen (San Diego, CA, USA), respectively. Dimethyl sulfoxide and doxorubicin were purchased from Merck (Darmstadt, Germany) and EBEWE Pharma (Unterach, Austria), respectively. The cells were acquired from Iranian Biological Resource Center, Tehran, Iran (HT-29 (human colorectal adenocarcinoma), MCF-7 (human breast adenocarcinoma) and Vero (African green monkey kidney) cells) or National Cell Bank of Iran, Pasteur Institute, Tehran, Iran (MOLT-4 (lymphoblastic leukemia) cells).
(§2) MTT reduction assay was employed to assess the viability of cancer cells after being treated with synthesized derivatives as previously described ([34]). The cells were plated in flat-bottom 96-well microplates, at densities of 3 × 10^4 cells/mL (100 μL in each well) and then incubated overnight at 37 °C. Three to four different concentrations of synthesized derivatives (in the range of 1 to 100 μM) were placed in triplicate wells and the plates were incubated for 72 h at 37 °C. […] At the end of the incubation time, 80 μL of the media in each well was replaced with the same amount of growth medium without phenol red containing 0.5 mg/mL of MTT. Cells were further incubated at 37 °C for 4 h and then 80 μL of the solution of each well was removed. The addition of DMSO (200μL) to each well solubilized the formazan crystals formed inside the viable cells after 1-hour incubation followed by 30-minute shaking. The optical absorbance of the final solution was determined at 570 nm using a Bio-Tek multimode plate reader (Synergy HTX). The cell viability was calculated compared to untreated control cells by comparison of absorbance measurements. CurveExpert software (version 1.34 for Windows) was used to determine the IC50 value for each compound. To confirm the results, every experiment was repeated 3 to 5 times.

[6] = tested on: MCF-7 (human breast adenocarcinoma) cells; assay: MTT reduction assay, antiproliferative effect, MCF-7; format: cell-based; conditions: Homo sapiens, MCF7, 72 h, read-out: MCF-7 IC50, MTT, 72 h incubation
Source text: as §1, §2

[7] = tested on: Vero (African green monkey kidney) cells; assay: MTT reduction assay, Vero normal cells; format: cell-based; conditions: Chlorocebus sabaeus, Vero, 72 h, read-out: Vero IC50
Source text: as §1, §2

MCF-7 cells [8] = assay: Hoechst 33258 staining, detection of apoptosis; format: cell-based, human; conditions: MCF-7, 72 h treatment, especially at 25 µM
Protocol: Hoechst 33258 was used as a DNA stain to detect apoptosis in cells. MCF-7 cells were seeded in a 6-well plate at a density of 5 × 10^4 cells/mL (2 mL per well) and incubated for 24 h. The whole medium was removed and different concentrations of test compounds 9g, 9j, 9k, and 9l diluted in 2 mL medium were placed in the different wells and incubated for 72 h. Afterward, the medium was removed again, 1 mL of 4% cold freshly prepared paraformaldehyde (PFA) was added, and cells were incubated for 20 min at room temperature. The cells were then washed 2 times with 1 ml PBS and incubated with 1 mL Hoechst 33258 2.5 µg/mL for 30 min in the dark at room temperature ([36], [37]). In the end, the cells were washed with 1 mL PBS and imaged with a fluorescence microscope.
Figure 3 Detection of apoptosis in MCF-7 cells by Hoechst staining. Hoechst 33258 was used as a DNA stain to detect apoptosis in MCF-7 cells treated with synthesized compounds. The cells were seeded in a 6-well plates and treated with different concentrations of test compounds 9g, 9j, 9k and 9l for 72 h. After removing the whole medium, 4% cold freshly prepared paraformaldehyde (PFA) was added for 20 min at room temperature, the cells were then washed twice with PBS, and incubated with Hoechst 33258 2.5 µg/mL for 30 min at room temperature in the dark. Finally, the cells were washed with PBS again and the plates were imaged with a fluorescence microscope

MCF-7 cells [9] = assay: Cell cycle analysis, propidium iodide/RNase flow cytometric assay; format: cell-based, human; conditions: 48 h
Protocol: Alterations of the cell cycle were determined by the propidium iodide (PI)-RNase flow cytometric method ([35]). MCF-7 cells were used to determine the percentage of cells in each phase of the cell cycle. In 6-well plates, 2 × 10^5 cells were seeded in each well and incubated at 37 °C for 48 h. Afterward, they were treated for 48 h with derivatives 9g, 9j, 9k and 9l at 10 and 25 μM. The cells were then collected after trypsinization, washed twice with PBS, and fixed by 5 mL ethanol 70% for at least 24 h at -20 °C. After fixation, MCF-7 cells were washed with PBS two times and stained with PI 20 µg/mL and RNase 200 µg/mL for 30 min in the dark at room temperature. A FACS Calibur ﬂow cytometer (BD Biosciences) was used for the assays and 20,000 events were analyzed. The number of cells distributed in sub-G1, G0/G1, S, and G2/M were determined by CellQuest software (BD, USA).
Figure 2 Representative cell cycle histograms of MCF-7 cells treated with synthesized derivatives. Analysis of the percentage of cells in different phases of cell cycle was performed using propidium iodide (PI)-RNase flow cytometric assay. MCF-7 cells were seeded in 6-well microplates and treated with synthesized derivatives for 48 h. The cells were then collected and fixed in 70% ethanol overnight at -20 °C. In the end, the cells were stained with DNA staining solution (PI 20 µg/mL and RNase 200 µg/mL) for 30 min and 20,000 events were analyzed by a FACS Calibur ﬂow cytometer (BD Biosciences). Representative histograms of cells treated with compounds 9g, 9j, 9k and 9l are shown

[10] = tested on: MOLT-4 (lymphoblastic leukemia) cells; assay: MTT reduction assay, antiproliferative effect, MOLT-4; format: cell-based, human; conditions: Homo sapiens, MOLT-4, 72 h, read-out: MOLT-4 IC50
Source text: as §1, §2

[11] = tested on: MDA-MB435s melanoma cells; parameters: method as in PMID 25470024; conditions: ref [32], [33]; read-out: Cytotoxic effect against MDA-MB435s melanoma cells IC50; cited from earlier work

Which IC50 [1] does the source give for `Cc1csc(N/N=C/c2ccccc2)n1` [Compound 6] here?
Its IC50 is 3.9 µM.

With `O=C1C(=O)c2ccccc2-c2ccccc21` [Compound 1] as the compound, how does the IC50 [2] read?
Its IC50 is 1.5 µM.

For `O=C1NC(=O)/C(=C/c2ccc(-c3nc4c5ccccc5c5ccccc5c4[nH]3)cc2)S1` [Compound 2], which “Growth inhibition in A498 renal cancer cells” value (A498 renal cancer cells) is on record?
Its value is 93%.

For `O=[N+]([O-])c1cccc(/C=N/Nc2nnc3c(n2)-c2cccc4cccc-3c24)c1` [Compound 4], which IC50 (MCF7 breast cancer cells) is on record?
The IC50 was 61.9 µM.

For `Oc1ccccc1C=NNc1nnc2c3ccccc3c3ccccc3c2n1` [Compound 9d, 2-((2-(phenanthro[9,10-e][1,2,4]triazin-3-yl)hydrazono)methyl)phenol], which “Solubility in aqueous media” value [3] is on record?
The value was “very low solubility in aqueous media”.

What about the melting point of the same compound?
The melting point was 328 to 332 °C.

With `Sc1nnc2c3ccccc3c3ccccc3c2n1` [Compound 3] as the compound, how does the melting point read?
Its melting point is 122 to 124 °C.

And the IC50 [4]?
Its IC50 is 7.6 µM.

Which IC50 [5] does the source give for `O=[N+]([O-])c1ccccc1C=NNc1nnc2c3ccccc3c3ccccc3c2n1` [Compound 9g, 3-(2-(2-nitrobenzylidene)hydrazinyl)phenanthro[9,10-e][1,2,4]triazine] here?
The IC50 was 16.7 ± 2.2 µM.

What about the IC50 [6] of the same compound?
The IC50 was 6.2 ± 1.3 µM.

And the IC50 [7]?
The IC50 was 11.1 ± 1 µM.

What about the melting point of the same compound?
The melting point was 225 to 229 °C.

And the “Apoptosis induction by Hoechst 33258 staining” value (MCF-7 cells [8])?
The value was “showed signs of apoptosis”.

What about the “Percentage of cells in G0/G1” value (MCF-7 cells [9]; MCF-7, 10 µM) of the same compound?
The value was 69.25 ± 2.1.

What about the “Percentage of cells in G2/M” value (MCF-7 cells [9]; MCF-7, 10 µM) of the same compound?
Its value is 18.58 ± 2.2.

And the “Percentage of cells in S” value (MCF-7 cells [9]; MCF-7, 10 µM)?
Its value is 8.79 ± 1.3.

And the “Percentage of cells in Sub G1” value (MCF-7 cells [9]; MCF-7, 10 µM)?
Its value is 1.35 ± 0.3.

What about the “Effect on cells in sub-G1 phase” value (MCF-7 cells [9]; MCF-7, 25 µM) of the same compound?
Its value is “increased the cells in the sub-G1 phase”.

And the “Percentage of cells in G0/G1” value (MCF-7 cells [9]; MCF-7, 25 µM)?
Its value is 74.76 ± 4.9.

And the “Percentage of cells in G2/M” value (MCF-7 cells [9]; MCF-7, 25 µM)?
The value was 13.97 ± 3.3.

What about the “Percentage of cells in S” value (MCF-7 cells [9]; MCF-7, 25 µM) of the same compound?
Its value is 7.58 ± 1.9.

And the “Percentage of cells in Sub G1” value (MCF-7 cells [9]; MCF-7, 25 µM)?
Its value is 1.82 ± 0.3.

And the “Effect on number of cells in G0/G1” value (MCF-7 cells [9]; MCF-7, 10 and 25 µM)?
The value was “significantly enhanced the number of cells in the G0/G1”.

And the IC50 [10]?
Its IC50 is 5.4 ± 1 µM.

Which IC50 [11] does the source give for `CSc1nnc2c3ccccc3c3ccccc3c2n1` [Compound 5] here?
Its IC50 is 120 µM.

What does the source list for `COc1ccc(C=NNc2nnc3c4ccccc4c4ccccc4c3n2)cc1` [Compound 9c, 3-(2-(4-methoxybenzylidene)hydrazinyl)phenanthro[9,10-e][1,2,4]triazine]?
Solubility in aqueous media [3]: very low solubility in aqueous media; melting point: 288 to 292 °C
